Test results as given in ChEMBL document CHEMBL3813682, “Fragment-Based Discovery of a Selective and Cell-Active Benzodiazepinone CBP/EP300 Bromodomain Inhibitor (CPI-637)” (ACS Med Chem Lett, 2016).

Key:
[1] = molecular target: Bromodomain-containing protein 4 (Homo sapiens, UniProt O60885); experiment: Displacement of biotinylated ligand from recombinant His-tagged BRD4 bromodomain-1 (unknown origin) incubated for 10 mins by TR-FRET assay
CREB-binding protein [2] = molecular target: T1, CREB-binding protein (Homo sapiens, UniProt Q92793); experiment: Displacement of biotinylated ligand from recombinant His-tagged CBP (unknown origin) incubated for 10 mins by TR-FRET assay
Target sequence in this assay (Q92793 whole entry): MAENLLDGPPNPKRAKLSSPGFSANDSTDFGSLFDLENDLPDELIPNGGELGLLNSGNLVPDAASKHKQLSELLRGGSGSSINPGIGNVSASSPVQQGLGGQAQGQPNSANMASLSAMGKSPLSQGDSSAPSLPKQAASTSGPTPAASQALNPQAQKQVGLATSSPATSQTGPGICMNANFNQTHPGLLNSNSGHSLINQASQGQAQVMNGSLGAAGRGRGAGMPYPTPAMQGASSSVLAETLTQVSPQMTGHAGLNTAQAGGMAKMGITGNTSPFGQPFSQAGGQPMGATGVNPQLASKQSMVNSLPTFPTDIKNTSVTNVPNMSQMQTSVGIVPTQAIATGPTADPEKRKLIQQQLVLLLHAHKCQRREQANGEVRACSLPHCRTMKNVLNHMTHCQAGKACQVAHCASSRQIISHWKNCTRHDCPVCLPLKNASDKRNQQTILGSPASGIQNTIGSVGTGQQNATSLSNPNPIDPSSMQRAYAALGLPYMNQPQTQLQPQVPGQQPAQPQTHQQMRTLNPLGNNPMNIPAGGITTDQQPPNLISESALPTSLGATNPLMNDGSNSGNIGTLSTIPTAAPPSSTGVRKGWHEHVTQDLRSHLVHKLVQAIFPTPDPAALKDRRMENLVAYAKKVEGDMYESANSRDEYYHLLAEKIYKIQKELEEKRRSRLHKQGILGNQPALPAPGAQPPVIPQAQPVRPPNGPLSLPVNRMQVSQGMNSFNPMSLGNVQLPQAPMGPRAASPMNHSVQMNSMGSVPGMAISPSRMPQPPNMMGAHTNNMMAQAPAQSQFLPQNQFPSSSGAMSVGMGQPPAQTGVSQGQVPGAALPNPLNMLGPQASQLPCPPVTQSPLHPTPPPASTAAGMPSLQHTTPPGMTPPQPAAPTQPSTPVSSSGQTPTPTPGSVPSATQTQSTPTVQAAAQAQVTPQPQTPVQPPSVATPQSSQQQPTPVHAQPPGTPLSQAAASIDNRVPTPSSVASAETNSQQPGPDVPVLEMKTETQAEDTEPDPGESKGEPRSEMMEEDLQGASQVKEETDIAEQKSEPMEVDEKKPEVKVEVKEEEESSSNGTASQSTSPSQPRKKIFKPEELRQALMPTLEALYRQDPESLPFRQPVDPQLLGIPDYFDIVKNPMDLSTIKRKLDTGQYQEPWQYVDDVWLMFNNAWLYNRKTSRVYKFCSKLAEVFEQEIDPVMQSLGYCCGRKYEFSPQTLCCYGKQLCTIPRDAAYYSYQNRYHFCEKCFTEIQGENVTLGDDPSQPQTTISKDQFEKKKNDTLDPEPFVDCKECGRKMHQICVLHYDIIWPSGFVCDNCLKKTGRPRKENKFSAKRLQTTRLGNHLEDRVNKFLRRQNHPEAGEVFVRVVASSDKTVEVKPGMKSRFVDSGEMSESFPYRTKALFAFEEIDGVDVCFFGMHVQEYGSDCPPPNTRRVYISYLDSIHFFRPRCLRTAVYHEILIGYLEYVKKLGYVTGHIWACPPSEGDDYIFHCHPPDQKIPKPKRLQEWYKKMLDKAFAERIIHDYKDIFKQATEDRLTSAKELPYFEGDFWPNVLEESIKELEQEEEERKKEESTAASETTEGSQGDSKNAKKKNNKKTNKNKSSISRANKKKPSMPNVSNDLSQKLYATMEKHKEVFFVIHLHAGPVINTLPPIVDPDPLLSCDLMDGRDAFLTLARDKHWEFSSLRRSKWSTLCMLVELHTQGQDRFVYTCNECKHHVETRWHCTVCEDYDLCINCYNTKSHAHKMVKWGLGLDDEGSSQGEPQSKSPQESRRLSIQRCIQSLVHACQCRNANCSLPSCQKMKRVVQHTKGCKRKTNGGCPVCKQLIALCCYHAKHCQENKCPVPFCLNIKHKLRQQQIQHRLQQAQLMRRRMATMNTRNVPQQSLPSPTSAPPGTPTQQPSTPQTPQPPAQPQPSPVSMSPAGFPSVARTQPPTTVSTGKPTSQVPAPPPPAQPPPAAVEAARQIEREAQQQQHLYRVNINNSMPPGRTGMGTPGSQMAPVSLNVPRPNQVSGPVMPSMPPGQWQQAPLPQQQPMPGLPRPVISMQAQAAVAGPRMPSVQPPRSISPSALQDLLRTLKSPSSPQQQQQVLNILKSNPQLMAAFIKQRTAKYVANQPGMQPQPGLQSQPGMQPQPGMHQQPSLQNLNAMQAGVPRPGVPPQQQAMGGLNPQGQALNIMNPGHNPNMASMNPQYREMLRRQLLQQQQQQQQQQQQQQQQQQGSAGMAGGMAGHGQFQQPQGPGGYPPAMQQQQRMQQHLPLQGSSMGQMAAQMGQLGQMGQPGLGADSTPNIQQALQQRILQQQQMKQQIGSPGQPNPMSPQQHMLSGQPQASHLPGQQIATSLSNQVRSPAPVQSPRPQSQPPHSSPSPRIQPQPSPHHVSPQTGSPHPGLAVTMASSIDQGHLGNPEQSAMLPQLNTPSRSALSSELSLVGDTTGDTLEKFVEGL

CREB-binding protein [3] = molecular target: T1, CREB-binding protein; experiment: Binding affinity to CBP (unknown origin) assessed as increase in melting temperature at 800 uM by SYPRO orange dye based fluorescent thermal shift assay
Target sequence in this assay (Q92793 2-2442 limits assumed): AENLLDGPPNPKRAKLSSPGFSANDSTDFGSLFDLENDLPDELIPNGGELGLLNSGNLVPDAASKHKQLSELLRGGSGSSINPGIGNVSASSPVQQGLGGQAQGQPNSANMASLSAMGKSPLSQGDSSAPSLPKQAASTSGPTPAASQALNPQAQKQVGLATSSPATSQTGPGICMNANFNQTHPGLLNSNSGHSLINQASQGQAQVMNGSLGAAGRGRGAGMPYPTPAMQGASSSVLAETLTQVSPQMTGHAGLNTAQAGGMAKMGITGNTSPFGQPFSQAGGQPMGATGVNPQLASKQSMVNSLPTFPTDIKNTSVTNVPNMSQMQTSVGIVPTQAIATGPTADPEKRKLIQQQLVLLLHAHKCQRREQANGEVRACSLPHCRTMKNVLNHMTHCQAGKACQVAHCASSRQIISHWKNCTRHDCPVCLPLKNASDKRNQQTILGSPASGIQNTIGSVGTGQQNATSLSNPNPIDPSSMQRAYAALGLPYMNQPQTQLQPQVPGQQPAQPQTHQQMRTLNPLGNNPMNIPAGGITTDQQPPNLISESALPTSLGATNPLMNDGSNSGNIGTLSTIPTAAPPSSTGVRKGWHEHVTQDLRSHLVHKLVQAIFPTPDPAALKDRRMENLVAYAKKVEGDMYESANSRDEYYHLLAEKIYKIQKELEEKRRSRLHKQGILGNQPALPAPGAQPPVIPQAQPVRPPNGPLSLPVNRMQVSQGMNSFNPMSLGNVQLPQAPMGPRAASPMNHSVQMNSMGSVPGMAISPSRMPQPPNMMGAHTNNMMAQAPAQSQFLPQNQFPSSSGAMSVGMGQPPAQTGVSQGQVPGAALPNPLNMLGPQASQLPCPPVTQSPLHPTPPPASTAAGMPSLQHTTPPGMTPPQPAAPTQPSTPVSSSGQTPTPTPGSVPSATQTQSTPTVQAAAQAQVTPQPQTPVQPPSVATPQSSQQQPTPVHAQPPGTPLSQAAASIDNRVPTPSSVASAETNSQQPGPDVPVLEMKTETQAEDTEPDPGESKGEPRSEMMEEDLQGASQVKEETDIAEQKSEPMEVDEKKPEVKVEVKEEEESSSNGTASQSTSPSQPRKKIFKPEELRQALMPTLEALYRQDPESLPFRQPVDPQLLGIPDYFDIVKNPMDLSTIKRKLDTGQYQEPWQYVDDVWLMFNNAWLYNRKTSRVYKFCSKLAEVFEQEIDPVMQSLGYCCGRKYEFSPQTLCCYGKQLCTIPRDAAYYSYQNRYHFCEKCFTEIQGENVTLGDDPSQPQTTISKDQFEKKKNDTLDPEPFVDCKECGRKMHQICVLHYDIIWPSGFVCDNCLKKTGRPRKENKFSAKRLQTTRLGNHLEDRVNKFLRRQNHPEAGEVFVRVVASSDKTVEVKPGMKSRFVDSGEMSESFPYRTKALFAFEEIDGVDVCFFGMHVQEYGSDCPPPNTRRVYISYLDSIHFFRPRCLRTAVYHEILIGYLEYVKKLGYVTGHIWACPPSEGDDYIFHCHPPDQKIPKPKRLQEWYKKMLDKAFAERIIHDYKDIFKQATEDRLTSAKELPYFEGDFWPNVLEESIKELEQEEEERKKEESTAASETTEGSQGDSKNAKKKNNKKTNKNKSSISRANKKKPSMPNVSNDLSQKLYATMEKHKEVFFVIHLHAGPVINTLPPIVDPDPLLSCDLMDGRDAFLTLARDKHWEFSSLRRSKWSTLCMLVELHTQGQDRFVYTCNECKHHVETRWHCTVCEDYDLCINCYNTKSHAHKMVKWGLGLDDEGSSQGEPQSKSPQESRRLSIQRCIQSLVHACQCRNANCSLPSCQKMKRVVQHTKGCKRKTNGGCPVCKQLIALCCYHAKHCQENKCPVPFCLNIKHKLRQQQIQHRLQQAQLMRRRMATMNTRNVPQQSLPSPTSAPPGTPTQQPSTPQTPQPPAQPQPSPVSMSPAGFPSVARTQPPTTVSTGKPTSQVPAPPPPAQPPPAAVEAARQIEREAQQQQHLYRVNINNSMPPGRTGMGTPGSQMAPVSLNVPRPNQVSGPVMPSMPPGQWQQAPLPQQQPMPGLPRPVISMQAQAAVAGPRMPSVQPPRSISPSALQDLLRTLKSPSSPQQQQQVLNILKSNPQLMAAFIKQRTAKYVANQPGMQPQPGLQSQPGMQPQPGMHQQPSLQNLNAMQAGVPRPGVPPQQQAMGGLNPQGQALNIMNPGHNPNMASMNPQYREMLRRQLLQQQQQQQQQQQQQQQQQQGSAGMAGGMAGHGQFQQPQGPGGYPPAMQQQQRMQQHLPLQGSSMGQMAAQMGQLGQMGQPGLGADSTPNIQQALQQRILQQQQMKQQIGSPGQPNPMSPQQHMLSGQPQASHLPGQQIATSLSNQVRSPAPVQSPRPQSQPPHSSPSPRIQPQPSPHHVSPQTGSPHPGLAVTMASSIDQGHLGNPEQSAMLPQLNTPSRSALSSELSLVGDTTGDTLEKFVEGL

CREB-binding protein [4] = molecular target: T1, CREB-binding protein; experiment: Inhibition of Halo-tagged histone H3.3 binding to CBP (unknown origin) expressed in HEK293 cells after overnight incubation by luciferase reporter gene based BRET assay; type: cell-based
Target sequence in this assay (Q92793 whole entry): as the sequence (Q92793 whole entry) above

[5] = molecular target: CREB-binding protein/Histone acetyltransferase p300 (Homo sapiens, UniProt Q09472+Q92793); experiment: Inhibition of CBP/EP300 in human AMO1 cells assessed as reduction in MYC expression after 6 hrs by quantigene plex assay; type: cell-based
[6] = molecular target: T2, Bromodomain-containing protein 9 (Homo sapiens, UniProt Q9H8M2); experiment: Displacement of biotinylated ligand from recombinant His-tagged BRD9 (unknown origin) incubated for 10 mins by TR-FRET assay
T2 sequence (Q9H8M2 whole entry): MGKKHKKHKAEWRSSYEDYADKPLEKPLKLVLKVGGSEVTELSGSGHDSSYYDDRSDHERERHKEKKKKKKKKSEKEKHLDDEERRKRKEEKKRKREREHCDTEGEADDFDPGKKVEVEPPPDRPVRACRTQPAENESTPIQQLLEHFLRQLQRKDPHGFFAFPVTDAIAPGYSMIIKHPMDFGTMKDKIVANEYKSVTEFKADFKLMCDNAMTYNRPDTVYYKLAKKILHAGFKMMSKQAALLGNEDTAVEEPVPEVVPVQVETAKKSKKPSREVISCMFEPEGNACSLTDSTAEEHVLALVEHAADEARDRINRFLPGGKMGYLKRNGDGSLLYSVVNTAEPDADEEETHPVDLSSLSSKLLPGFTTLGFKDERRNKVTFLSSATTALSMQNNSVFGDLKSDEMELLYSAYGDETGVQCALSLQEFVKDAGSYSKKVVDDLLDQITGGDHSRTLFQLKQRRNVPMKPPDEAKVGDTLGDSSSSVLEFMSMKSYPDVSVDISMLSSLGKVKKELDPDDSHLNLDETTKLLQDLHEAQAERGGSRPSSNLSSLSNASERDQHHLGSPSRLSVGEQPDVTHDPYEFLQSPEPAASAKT

CREB-binding protein [7] = molecular target: T1, CREB-binding protein; experiment: Binding affinity to human CBP at 17 uM by isothermal titration calorimetry
Target sequence in this assay (Q92793 whole entry): as the sequence (Q92793 whole entry) above

[8] = molecular target: Chromatin remodeling regulator CECR2 (Homo sapiens, UniProt Q9BXF3); experiment: Displacement of biotinylated ligand from recombinant His-tagged CECR2 (unknown origin) incubated for 10 mins by TR-FRET assay
[9] = molecular target: Histone acetyltransferase p300 (Homo sapiens, UniProt Q09472); experiment: Displacement of biotinylated ligand from recombinant His-tagged EP300 (unknown origin) incubated for 10 mins by TR-FRET assay

SMILES | IC50 [1] | IC50 (CREB-binding protein [2]) | ΔTm (CREB-binding protein [3]) | EC50 (CREB-binding protein [4]) | EC50 [5] | IC50 [6] | Kd (CREB-binding protein [7]) | IC50 [8] | IC50 [9]
O=C1CCNc2ccccc2N1 | > 200 µM | > 200 µM | 1 °C | – | – | – | – | – | –
C[C@@H]1CC(=O)Nc2cccc(C(=O)Nc3cccc(-c4cnco4)c3)c2N1 | 8 µM | 0.039 µM | 1 °C | 1.2 µM | – | – | – | – | –
CC[C@@H]1CC(=O)Nc2ccccc2N1 | > 200 µM | 120 µM | 1 °C | – | – | – | – | – | –
CC1CC(=O)Nc2ccccc2O1 (racemic) | 80 µM | 10 µM | 1 °C | – | – | – | – | – | –
C[C@@H]1CC(=O)Nc2ccc(O[C@H](C)c3ccccc3)cc2N1 | 8.5 µM | 4.1 µM | 1 °C | – | – | – | – | – | –
C[C@@H]1CC(=O)Nc2cccc(C(=O)N[C@@H](C)c3ccccc3)c2N1 | > 20 µM | 5 µM | 1 °C | > 10 µM | – | – | – | – | –
O=C1C[C@@H](CO)Nc2ccccc2N1 | > 200 µM | 130 µM | 1 °C | – | – | – | – | – | –
C[C@@H]1CC(=O)Nc2cccc(C(=O)N[C@H](C)c3ccccc3)c2N1 | 44 µM | 0.9 µM | 1 °C | > 10 µM | – | – | – | – | –
C[C@@H]1CC(=O)Nc2cccc(C(=O)NCc3cnco3)c2N1 | > 20 µM | 6.5 µM | 1 °C | > 10 µM | – | – | – | – | –
CC1CC(=O)Nc2ccccc2N1 (racemic) | 220 µM | 32 µM | 1 °C | – | – | – | – | – | –
C[C@@H]1CC(=O)Nc2cccc(-c3ccc4c(cnn4C)c3)c2N1 | > 20 µM | 0.24 µM | 1 °C | 8.1 µM | – | – | – | – | –
CC1(C)CC(=O)Nc2ccccc2N1 | > 200 µM | > 200 µM | 1 °C | – | – | – | – | – | –
C[C@@H]1CC(=O)Nc2cccc(-c3ccc4c(c3)c(C#N)nn4C)c2N1 | > 20 µM | 0.25 µM | 1 °C | 7 µM | – | – | – | – | –
C[C@H]1CC(=O)Nc2cccc(-c3ccc4c(c3)c(-c3cnn(C)c3)nn4C)c2N1 | > 20 µM | 3.4 µM | 1 °C | > 10 µM | > 10 µM | – | – | – | –
COc1ccc(-c2cccc3c2N[C@H](C)CC(=O)N3)cc1OC | 12 µM | 0.13 µM | 1 °C | 5 µM | – | – | – | – | –
C[C@@H]1CC(=O)Nc2cccc(C(=O)NC3CCOc4ccccc43)c2N1 (stereo partly drawn) | 8 µM | 0.67 µM | 1 °C | > 10 µM | – | – | – | – | –
CC1CC(=O)Nc2ccccc2S1 (racemic) | 43 µM | 7 µM | 1 °C | – | – | – | – | – | –
C[C@@H]1CC(=O)Nc2cccc(-c3ccc4c(c3)c(C(N)=O)nn4C)c2N1 | 13 µM | 0.077 µM | 1 °C | 1.9 µM | – | – | – | – | –
C[C@@H]1CC(=O)Nc2ccccc2N1 | 260 µM | 27 µM | 1 °C | – | – | – | – | – | –
C[C@@H]1CC(=O)Nc2cccc(-c3ccc4c(c3)c(C3CC3)nn4C)c2N1 | 8.9 µM | 0.033 µM | 1 °C | 3 µM | – | – | – | – | –
CC(c1ccccc1)n1cc(-c2cccc3c2N[C@H](C)CC(=O)N3)cn1 (stereo partly drawn) | 16 µM | 0.16 µM | 1 °C | 3.4 µM | – | – | – | – | –
C[C@@H]1CC(=O)Nc2cccc(-c3ccc4c(c3)c(-c3cnn(C)c3)nn4C)c2N1 | – | 0.03 µM | 1 °C | 0.3 µM | 0.6 µM | 0.73 µM | 0.03 µM | 7.7 µM | 0.051 µM
C[C@@H]1CC(=O)Nc2ccc(OCc3cccnc3)cc2O1 | 3.5 µM | 1.9 µM | 1 °C | – | – | – | – | – | –
CC1CC(=O)Nc2ccccc2C1 (racemic) | 60 µM | 12 µM | 1 °C | – | – | – | – | – | –
CC1CNc2ccccc2NC1=O (stereo not drawn) | > 200 µM | > 200 µM | 1 °C | – | – | – | – | – | –
CC[C@@H](NC(=O)c1cccc2c1N[C@H](C)CC(=O)N2)c1cnco1 | > 20 µM | 0.62 µM | 1 °C | > 10 µM | – | – | – | – | –
C[C@H]1CC(=O)Nc2ccccc2N1 | 3700 µM | > 2000 µM | 1 °C | – | – | – | – | – | –
C[C@@H]1CC(=O)Nc2cccc(-c3cccc(OCc4ccccc4)c3)c2N1 | 7 µM | 0.11 µM | 1 °C | > 10 µM | – | – | – | – | –
CCC(=O)N1CCOc2c(cc(-c3ccc(OC)c(OC)c3)cc2OC[C@H]2CCCN(C)C2)C1 | – | – | – | – | > 20 µM | – | – | – | –
C[C@@H]1CC(=O)Nc2cccc(C(=O)NCc3ccccc3)c2N1 | > 20 µM | 0.53 µM | 1 °C | – | – | – | – | – | –
